pIC50: −log10 of the molar value.
Key:
[1] = target: Glutamate NMDA receptor; test: Evaluated for its affinity to bind PCP N-methyl-D-aspartate (NMDA) glutamate receptor in rat brain membrane using [3H]MK-801 as radioligand; format: cell membranes
[2] = target: Glutamate NMDA receptor; test: Evaluated for its affinity to bind ion channel binding sites (phencyclidine or PCP receptor) on the N-methyl-D-aspartate glutamate receptor in rat brain membrane using [3H]MK-801 as radioligand; format: cell membranes

pIC50 [2]	SMILES	pIC50 [1]
	C[C@@]12Cc3ccc(Cl)cc3C[C@@H](N1)c1ccccc12 (racemic)	6.72
	C[C@@]12Cc3ccccc3C[C@@H](N1)c1ccc(Br)cc12 (racemic)	6.85
	CC1c2ccccc2C[C@H]2N[C@]1(C)c1ccccc12 (mixture of isomers)	6.23
	CC12Cc3ccccc3[C@H](Cc3ccccc31)N2 (mixture of isomers)	6.16
	Cc1ccc2c(c1)[C@]1(C)N[C@H](C2)c2ccccc21 (racemic)	7.49
	c1ccc2c(c1)C[C@@H]1N[C@H](C2)c2ccccc21	6.19
	C[C@@]12Cc3ccc(Br)cc3C[C@@H](N1)c1ccccc12 (racemic)	6.49
	C[C@]12N[C@H](Cc3c1ccc1ccccc31)c1ccccc12 (racemic)	5.24
	C[C@@]12Cc3ccccc3[C@@H](C=N1)c1ccccc12 (racemic)	< 4.00
	C[C@]12Cc3ccccc3C[C@](O)(N1)c1ccccc12 (racemic)	6.98
	C[C@]12N[C@H](Cc3ccccc31)Cc1ccccc12	6.85
	C[C@]12N[C@H](Cc3ccccc31)c1cc3ccccc3cc12 (racemic)	4.07
	CC12Cc3ccccc3[C@@H](N1)c1ccccc12 (mixture of isomers)	6.59
	C[C@@]12Cc3ccc(O)cc3C[C@@H](N1)c1ccccc12 (racemic)	6.85
7.19	C[C@@]12N[C@@](C)(c3ccccc31)C(O)c1ccccc12 (mixture of isomers; 13)	
6.02	CC12Cc3ccccc3[C@@H](O)C(CN1)c1ccccc12 (mixture of isomers)	
	Cc1cccc2c1[C@H]1Cc3ccccc3[C@]2(C)N1 (racemic)	5.52
5.18	C[C@@]12N[C@@](C)(c3ccccc31)C(O)c1ccccc12 (mixture of isomers; 14)	
	Cc1ccc2c(c1)[C@H]1Cc3ccccc3[C@]2(C)N1 (racemic)	6.36
	Cc1ccc2c(c1)C[C@H]1N[C@]2(C)c2ccccc21 (racemic)	6.19
	C[C@]12Cc3ccccc3C[C@](C)(N1)c1ccccc12	7.52
	C[C@]12Cc3ccccc3[C@@H]3[C@H](c4ccccc41)N32 (mixture of isomers)	< 4.00

pIC50 [2]	SMILES	pIC50 [1]
	C[C@@]12Cc3ccccc3C[C@@H](N1)c1ccccc12 (stereo in doubt; (+)-15)	6.98
	C[C@]12N[C@](C)(Cc3ccccc31)c1ccccc12 (racemic)	7.46
	Cc1ccc2c(c1)[C@@]1(C)N[C@@H]2Cc2ccccc21 (racemic)	7.00
	C[C@]12N[C@H](Cc3ccccc31)c1c2ccc2ccccc12 (racemic)	5.64
	C[C@@]12Cc3cc(Br)ccc3C[C@@H](N1)c1ccccc12 (racemic)	7.10
	C[C@@]12Cc3ccccc3C[C@@H](N1)c1c(Cl)cccc12 (racemic)	5.86
	CCN1[C@@H]2Cc3ccccc3C[C@@]1(C)c1ccccc12 (racemic)	5.60
	C[C@@]12Cc3ccccc3C[C@@H](N1)c1cc(Cl)ccc12 (racemic)	6.60
	COc1ccc2c(c1)C[C@H]1N[C@@](C)(C2)c2ccccc21 (racemic)	6.66
	C[C@]12Cc3ccccc3C[C@H](c3ccccc31)N2Cc1ccccc1 (racemic)	4.64
	C[C@@]12Cc3ccccc3C[C@@H](N1)c1ccccc12 (racemic)	7.07
	CCCC[C@@]12Cc3ccccc3C[C@@](C)(N1)c1ccccc12 (racemic)	5.44
	CN1[C@@H]2Cc3ccccc3C[C@@]1(C)c1ccccc12 (racemic)	6.28
	C[C@]12N[C@](C)(c3ccccc31)c1ccccc12	7.62
	C[C@@]12Cc3ccccc3C[C@@H](N1)c1ccccc12 (stereo in doubt; (-)-15)	6.97
	C[C@]12Cc3ccccc3C[C@H](c3ccccc31)[N+]2(C)C (racemic)	5.15
	CC[C@@]12Cc3ccccc3C[C@@H](N1)c1ccccc12 (racemic)	5.87
	C[C@]12N[C@H](Cc3cc4ccccc4cc31)c1ccccc12 (racemic)	4.05
	Cc1cccc2c1C[C@H]1N[C@]2(C)c2ccccc21 (racemic)	6.10
	C[C@@]12N[C@@H](c3ccccc31)[C@H](O)c1ccccc12 (racemic)	6.19
	C[C@@]12Cc3ccccc3C[C@@H](N1)c1cc(Br)ccc12 (racemic)	6.57

SMILES	pIC50 [2]	pIC50 [1]
C[C@@]12Cc3ccccc3C(CN1)[C@@H](O)c1ccccc12 (mixture of isomers)	5.09	

Reference: ChEMBL document CHEMBL1124755, “Role of hydrogen bonding in ligand interaction with the N-methyl-D-aspartate receptor ion channel” (J Med Chem, 1990)
